Results: ChEMBL document CHEMBL4840328, “The Phytochemical Scoulerine Inhibits Aurora Kinase Activity to Induce Mitotic and Cytokinetic Defects” (J Nat Prod, 2021)
pEC50, pIC50: −log10 of the molar value. Active and inactive are the calls of the source. The calls are words filed in the database; no cut-off is given here.

Columns and labels:
HRPE [1] = assay: Induction of cell cycle arrest in human RPE cells expressing MYC-Bcl2 assessed as disorganized NUMA1 at 4 uM for 6 hrs by immunostaining analysis; assay type: functional, cell-based
HRPE [2] = assay: Cytotoxicity against HRPE cells overexpressing MYC-H2BGFP assessed as cell viability measured after 72 hrs by MTT assay; assay type: functional, cell-based; settings: Homo sapiens
HRPE [3] = assay: Induction of mitotic arrest in HRPE Cells overexpressing MYC at 20 uM by acridine orange staining based fluorescence microscopic analysis; assay type: functional, tissue-based; settings: Homo sapiens
HRPE [4] = assay: Induction of mitotic arrest in HRPE Cells overexpressing MYC-Bcl2 measured for 46 to 62 hrs by time-lapse analysis; assay type: functional, tissue-based; settings: Homo sapiens, dose 2-4 µM, time 46-62 hrs
HRPE [5] = assay: Induction of mitotic arrest in HRPE Cells overexpressing MYC assessed as polyploidy at 5 uM by acridine orange staining based fluorescence microscopic analysis; assay type: functional, tissue-based; settings: Homo sapiens
[6] = Induction of mitotic arrest in HRPE Cells overexpressing MYC measured for 24 hrs by acridine orange staining based fluorescence microscopic analysis; assay type: functional, tissue-based, Homo sapiens
[7] = Induction of mitotic arrest in HRPE Cells overexpressing MYC assessed as polyploidy measured for 48 hrs by acridine orange staining based fluorescence microscopic analysis; assay type: functional, tissue-based, Homo sapiens
HRPE [8] = assay: Induction of cell cycle arrest in HRPE cells overexpressing MYC/Bcl2 assessed as centrosome amplification measured after 6 hrs by DAPI staining based analysis; assay type: functional; settings: Homo sapiens
[9] = target: T1, Aurora kinase A (Homo sapiens) (UniProt O14965); assay: Inhibition of AURKA (unknown origin) in HRPE cells overexpressing MYC/Bcl2 assessed as inhibition of autophosphorylation of threonine 288 at 20 uM measured for 6 hrs by immunostaining based fluorescence microscopic analysis; assay type: cell-based
T1 sequence (whole entry): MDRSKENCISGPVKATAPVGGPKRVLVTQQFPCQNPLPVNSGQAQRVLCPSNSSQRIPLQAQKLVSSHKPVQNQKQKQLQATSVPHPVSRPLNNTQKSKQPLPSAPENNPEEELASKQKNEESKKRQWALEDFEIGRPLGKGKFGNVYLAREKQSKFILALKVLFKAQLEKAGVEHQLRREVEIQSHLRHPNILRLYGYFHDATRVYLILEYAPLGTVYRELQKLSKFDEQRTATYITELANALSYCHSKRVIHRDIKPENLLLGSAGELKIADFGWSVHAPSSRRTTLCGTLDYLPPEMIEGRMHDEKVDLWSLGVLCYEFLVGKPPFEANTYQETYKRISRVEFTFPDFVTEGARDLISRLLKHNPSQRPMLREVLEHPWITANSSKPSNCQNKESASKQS

[10] = target: Aurora kinase B (Homo sapiens) (UniProt Q96GD4); assay: Inhibition of AURKB (unknown origin) in HRPE cells overexpressing MYC/Bcl2 assessed as decrease in H3PS10 fluorescence intensity at 20 uM measured for 6 hrs by immunostaining based fluorescence microscopic analysis; assay type: cell-based
Aurora kinase B (Homo sapiens), sequence (Q96GD4 whole entry): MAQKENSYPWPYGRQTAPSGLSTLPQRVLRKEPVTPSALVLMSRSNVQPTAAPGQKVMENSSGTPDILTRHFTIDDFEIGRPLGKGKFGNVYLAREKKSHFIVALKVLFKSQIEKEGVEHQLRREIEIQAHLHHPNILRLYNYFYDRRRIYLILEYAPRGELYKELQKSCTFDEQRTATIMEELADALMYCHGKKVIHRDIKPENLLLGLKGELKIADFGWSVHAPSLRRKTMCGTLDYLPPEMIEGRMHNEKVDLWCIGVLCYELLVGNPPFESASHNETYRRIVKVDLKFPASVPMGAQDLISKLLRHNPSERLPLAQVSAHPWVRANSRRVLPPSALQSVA

NCI-H460 = assay: Cytotoxicity against human NCI-H460 cells assessed as centrosome amplification and declustering by measuring multiple foci by immunostaining analysis; assay type: functional, cell-based; settings: time 72.0 hrs
[11] = Cytotoxicity against human wild type p53HCT116 cells assessed as cell viability measured after 72 hrs by MTT assay; assay type: functional, cell-based; settings: p53HCT116, 72 h
[12] = Cytotoxicity against human HCT116-p53-null cells assessed as cell viability measured after 72 hrs by MTT assay; assay type: functional, cell-based
NCI-H23 = assay: Cytotoxicity against human NCI-H23 cells harboring MYC assessed as cell viability measured after 72 hrs by MTT assay; assay type: functional, cell-based; settings: NCI-H23, 72 h
[13] = Cytotoxicity against HRPE cells overexpressing MYC assessed as cell viability measured after 72 hrs by MTT assay; assay type: functional, cell-based; settings: Homo sapiens
[14] = Cytotoxicity against HRPE cells overexpressing MYC/Bcl2 assessed as cell viability measured after 72 hrs by MTT assay; assay type: functional, cell-based; settings: Homo sapiens
A549 = assay: Cytotoxicity against human A549 cells assessed as cell viability measured after 72 hrs by MTT assay; assay type: functional, cell-based; settings: A549, 72 h
HeLa = assay: Cytotoxicity against human HeLa cells assessed as cell viability measured after 72 hrs by MTT assay; assay type: functional, cell-based
MDA-MB-231 = assay: Cytotoxicity against human MDA-MB-231 cells assessed as cell viability measured after 72 hrs by MTT assay; assay type: functional, cell-based; settings: MDA-MB-231, 72 h
SW480 = assay: Cytotoxicity against human SW480 cells assessed as cell viability measured after 72 hrs by MTT assay; assay type: functional, cell-based; settings: SW480, 72 h
HRPE [15] = assay: Induction of cell cycle arrest in human RPE cells expressing MYC-Bcl2 assessed as foci in colocalized gamma-tubulin at 4 uM for 6 hrs by immunostaining analysis; assay type: functional, cell-based
HRPE [16] = assay: Induction of cell cycle arrest in human RPE cells expressing MYC-Bcl2 assessed as foci in colocalized Aurora kinase A at 4 uM for 6 hrs by immunostaining analysis; assay type: functional, cell-based
HRPE [17] = assay: Induction of cell cycle arrest in human RPE cells expressing MYC-Bcl2 assessed as disorganized alpha-tubulin at 4 uM for 6 hrs by immunostaining analysis; assay type: functional, cell-based

For `CCN(CCCOc1ccc2c(Nc3cc(CC(=O)Nc4cccc(F)c4)[nH]n3)ncnc2c1)CCOP(=O)(O)O`, the Activity (HRPE [1]) was “inactive”.

With `COc1cc(Nc2ncc3c(n2)-c2ccc(Cl)cc2C(c2c(F)cccc2OC)=NC3)ccc1C(=O)O` the Activity (HRPE [2]) was “Active”.

With `COc1cc2c(cc1O)[C@@H]1Cc3ccc(O)c(OC)c3CN1CC2` the Activity (HRPE [3]) was “inactive”.

With `COc1cc2c(cc1OC)[C@@H]1Cc3ccc(OC)c(OC)c3CN1CC2` the Activity (HRPE [3]) was “inactive”.

In the case of `COc1cc2c(cc1O)[C@@H]1Cc3ccc(OC)c(O)c3CN1CC2` [SCOULERINE], the Activity (HRPE [4]) was “Dose-Dependent Effect”, the Activity (HRPE [3]) was “inactive” and the Activity (HRPE [5]) was “Active”. For the same molecule, the pEC50 [6] was 5.45, the pEC50 [7] was 5.44 and the Activity (HRPE [8]) was “inactive”. For the same molecule, the inhibition [9] was “Active”, the inhibition [10] was “Active” and the Activity (NCI-H460) was “Active”. It also gave a pIC50 [11] of 5.17, a pIC50 [12] of 5.26 and a pIC50 (NCI-H23) of 5.59. For the same molecule, the pIC50 [13] was 5.39, the pIC50 [14] was 5.34 and the pIC50 (A549) was 4.58. The pIC50 (HeLa) was 5.17, the pIC50 (MDA-MB-231) was 5.14 and the pIC50 (SW480) was 5.37. The Activity (HRPE [2]) was “inactive”, the Activity (HRPE [15]) was “Active” and the Activity (HRPE [16]) was “Active”. For the same molecule, the Activity (HRPE [17]) was “Active” and the Activity (HRPE [1]) was “Active”.
